Measurements as given in PubChem BioAssay (NCI).
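Protocol summary: plate cells (96-well), add compound at 5 concentrations, incubate 48 h, interpolate endpoints linearly. GI50 = concentration required for 50% inhibition of growth. TGI: concentration producing complete growth inhibition.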

Assays:
Assay in all cases: growth of human tumour cells (NCI), 48 h
NCI-H226 lung = test system: NCI-H226 lung
SF-539 CNS = test system: SF-539 CNS
SN12C renal = test system: SN12C renal
OVCAR-5 ovarian = test system: OVCAR-5 ovarian
OVCAR-4 ovarian = test system: OVCAR-4 ovarian
KM12 colon = test system: KM12 colon
HOP-62 NSCLC = test system: HOP-62 NSCLC
BT-549 breast = test system: BT-549 breast
HCT-116 colon = test system: HCT-116 colon
CAKI-1 renal = test system: CAKI-1 renal

Row | SMILES | GI50 (NCI-H226 lung) | TGI (NCI-H226 lung) | GI50 (SF-539 CNS) | TGI (SF-539 CNS) | GI50 (SN12C renal) | TGI (SN12C renal) | GI50 (OVCAR-5 ovarian) | TGI (OVCAR-5 ovarian) | GI50 (OVCAR-4 ovarian) | TGI (OVCAR-4 ovarian) | GI50 (KM12 colon) | TGI (KM12 colon) | GI50 (HOP-62 NSCLC) | TGI (HOP-62 NSCLC) | GI50 (BT-549 breast) | TGI (BT-549 breast) | GI50 (HCT-116 colon) | TGI (HCT-116 colon) | GI50 (CAKI-1 renal) | TGI (CAKI-1 renal)
1 | C=C(c1ccc(C(=O)N(C)c2ccccc2N)cc1)C(C)N1C(=O)[C@H]2CCCN2C(=O)c2ccccc21 (some centres undefined) | 63.4 µM | > 100 µM | 42.3 µM | > 100 µM | 26.4 µM | > 100 µM | 11.5 µM | > 100 µM | 2.91 µM | 41.2 µM | > 100 µM | > 100 µM | 31.6 µM | > 100 µM | > 100 µM | > 100 µM | 19.8 µM | > 100 µM | 32.8 µM | > 100 µM
2 | C=C1C(=O)O[C@H]2[C@H]1CC/C(COC(=O)CSCC(=O)OC/C1=C/CC[C@@]3(C)O[C@H]3[C@H]3OC(=O)C(=C)[C@@H]3CC1)=C\CC[C@@]1(C)O[C@@H]21 | 2.28 µM | 6.59 µM | 2.04 µM | 5.08 µM | 1.6 µM | 3.54 µM | 1.85 µM | 3.86 µM | 1.79 µM | 4.6 µM | 2.59 µM | 8.75 µM | 5.25 µM | 20.2 µM | 1.42 µM | 2.9 µM | 0.466 µM | 1.59 µM | 1.57 µM | 3 µM
3 | COc1ccc(/C=C/C(=O)Oc2cc(O)cc(O)c2)cc1 | – | > 100 µM | – | > 100 µM | – | > 100 µM | – | > 100 µM | – | > 100 µM | – | 28.4 µM | – | 31.5 µM | – | > 100 µM | – | 39.5 µM | – | 31 µM
4 | O=C(CCl)N1c2ccccc2Sc2ccc3ccccc3c21 | 2.36 µM | 5.5 µM | 1.72 µM | 3.15 µM | 1.59 µM | 2.98 µM | 1.48 µM | 3.03 µM | 0.659 µM | 2.9 µM | 1.82 µM | 3.35 µM | 1.63 µM | 3.05 µM | 1.56 µM | 3.52 µM | 0.652 µM | 2.06 µM | 0.498 µM | 0.95 µM
5 | CC(C)NC(=O)OCc1c(COC(=O)NC(C)C)c(-c2ccc(Cl)cc2)n2c1CCC2 | 2.31 µM | 11.3 µM | 2.53 µM | 9.72 µM | 2.29 µM | 15.4 µM | 3.3 µM | 13.5 µM | 2.7 µM | 14.3 µM | 11 µM | 25.9 µM | 3.05 µM | 16.2 µM | 2.4 µM | 15.1 µM | 3.54 µM | 17.5 µM | 0.534 µM | 3.83 µM
6 | O=C(N/N=C/c1ccccc1O)C(=O)Nc1ccc(F)cc1 | 16 µM | > 100 µM | 2.98 µM | 18.5 µM | 6.46 µM | > 100 µM | 6.69 µM | > 100 µM | 2.53 µM | > 100 µM | 6.97 µM | > 100 µM | 10.7 µM | > 100 µM | 18.1 µM | > 100 µM | 3.19 µM | > 100 µM | 2.24 µM | 22 µM
7 | O=C(Nc1ccc(Cl)cc1)c1cc(-c2ccc(Cl)cc2)c2sc(=O)[nH]c2n1 | 2.26 µM | 9.18 µM | 2.43 µM | 11.6 µM | 2.12 µM | 20.1 µM | 3.41 µM | 29.3 µM | 2.02 µM | 9.98 µM | 1.58 µM | 10.3 µM | 2.58 µM | 8.85 µM | 2.08 µM | 6.88 µM | 2.4 µM | 10.8 µM | 1.95 µM | 13.1 µM
8 | COc1ccccc1/C=N\N=C(N/N=C/c1ccccc1OC)N/N=C/c1ccccc1OC | 4.08 µM | > 100 µM | 4.27 µM | > 100 µM | 3.35 µM | 19.7 µM | 4 µM | > 100 µM | 3.43 µM | > 100 µM | 2.96 µM | 16.2 µM | 2.91 µM | 13.4 µM | 2.88 µM | 9.83 µM | 3.04 µM | 11.3 µM | 2.08 µM | 6.19 µM
9 | COc1cccc2c1C(=O)c1c(O)c3c(c(O)c1C2=O)C[C@@](O)(C(=O)CO)C[C@@H]3OC1C[C@H](N)[C@H](O)[C@H](C)O1 (some centres undefined) | 0.0201 µM | 0.102 µM | 0.0387 µM | 0.528 µM | 0.0253 µM | 7.44 µM | 0.214 µM | 14.5 µM | 0.133 µM | 2.9 µM | 0.135 µM | 6.27 µM | 0.033 µM | 0.323 µM | 0.059 µM | 0.241 µM | 0.036 µM | 0.212 µM | – | 4.18 µM
10 | C=C1C(=O)O[C@H]2[C@H]1CC/C(COC(=O)NCCc1c[nH]c3ccc(OC)cc13)=C\CC[C@@]1(C)O[C@@H]21 | 1.88 µM | 3.61 µM | 1.78 µM | 4.01 µM | 1.81 µM | 3.8 µM | 1.82 µM | 4 µM | 1.69 µM | 5.09 µM | 6.49 µM | 23.2 µM | 3.49 µM | 15.7 µM | 1.4 µM | 3.13 µM | 1.46 µM | 3.11 µM | 1.49 µM | 3.32 µM
11 | COc1ccccc1C#Cc1ccccc1C#CCCCCCC#Cc1ccccc1C#Cc1ccccc1OC | > 100 µM | > 100 µM | > 100 µM | > 100 µM | > 100 µM | > 100 µM | > 100 µM | > 100 µM | 13.7 µM | 84.4 µM | 75 µM | > 100 µM | > 100 µM | > 100 µM | > 100 µM | > 100 µM | 58 µM | > 100 µM | 41.2 µM | > 100 µM
12 | O=C(O)c1cc2cc(OCc3ccccc3)c(OCc3ccccc3)cc2[nH]1 | 17.1 µM | 35.7 µM | 19.9 µM | 44 µM | 33.1 µM | > 100 µM | 29.1 µM | 87.9 µM | 34.9 µM | > 100 µM | 19.3 µM | 36.2 µM | 16.4 µM | 52.4 µM | 18.5 µM | 35.6 µM | 17.1 µM | 30.8 µM | 20.7 µM | 51.3 µM
